Reference: patent publication US20080069896A1, “Antitumor Composition” (Kabushiki Kaisha Sangi, priority 2004, published 2008)

Columns and labels:
Assay type in all cases: cell-based
HeLa = assay: MTT assay, human cancer cells HeLa
Description: (§1) Effect of platinum tetrachloride/hydroxyapatite (PtCl4/HAP) and hexachloroplatinate/hydroxyapatite (H2PtCl6/HAP) against human cancer cells (MTT assay)
(§2) According to “in vitro toxicity test using MTT”, which is an ordinary test method, MTT assay was performed for PtCl4/HAP (particle diameter 0.1 μm or less), and H2PtCl6/HAP (particle diameter 0.1 μm or less) by using 19 types of human cancer cells. PtCl4/HAP and H2PtCl6/HAP were used by adjusting the final dispersion concentration to 1.0% in a dispersion liquid each containing 10% platinum as a theoretical value. For comparison, MTT assay was performed for PtCl4 and CDDP. PtCl4 was dissolved at an adequate dose, and then used after serial dilution with PBS (−). For CDDP, injection liquid from Malco was used.

SiHa = assay: MTT assay, human cancer cells SiHa
Description: as §1, §2

HT1080 = assay: MTT assay, human cancer cells HT1080
Description: as §1, §2

A431 = assay: MTT assay, human cancer cells A431
Description: as §1, §2

HSC3 = assay: MTT assay, human cancer cells HSC3
Description: as §1, §2

KB = assay: MTT assay, human cancer cells KB
Description: as §1, §2

YES1 = assay: MTT assay, human cancer cells YES1
Description: as §1, §2

YES2 = assay: MTT assay, human cancer cells YES2
Description: as §1, §2

YES3 = assay: MTT assay, human cancer cells YES3
Description: as §1, §2

YES4 = assay: MTT assay, human cancer cells YES4
Description: as §1, §2

YES5 = assay: MTT assay, human cancer cells YES5
Description: as §1, §2

YES6 = assay: MTT assay, human cancer cells YES6
Description: as §1, §2

AZ521 = assay: MTT assay, human cancer cells AZ521
Description: as §1, §2

Kato-III = assay: MTT assay, human cancer cells Kato-III
Description: as §1, §2

NUGC-4 = assay: MTT assay, human cancer cells NUGC-4
Description: as §1, §2

SW837 = assay: MTT assay, human cancer cells SW837
Description: as §1, §2

LoVo = assay: MTT assay, human cancer cells LoVo
Description: as §1, §2

HepG2 = assay: MTT assay, human cancer cells HepG2
Description: as §1, §2

[1] = test system: human lung cancer cell Lu65; assay: MTT assay, human lung cancer cell Lu65
Description: as §1, §2

[2] = test system: human lung cancer cell Lu99; assay: MTT assay, human lung cancer cell Lu99
Description: as §1, §2

[3] = test system: fibroblasts during resting stage; assay: Toxicity test during resting stage (MTT assay); details: rat fibroblasts, confluent, 48 hours
Source text: A male mature rat was deeply anesthetized with ether, and disinfected by wiping carefully its tail with alcohol. The tail end part was cut by several centimeters, and the skin was removed from coccyx. Tendon was attached to the coccyx, and by culturing the same, fibroblasts can be recovered. Coccyx part was further cut finely with a sterilized pair of scissors, and adhered on a sterilized plastic plate with the cut surface down. After resting the plate for a while, DMEM supplemented with 10% FBS was added thereto. In approximately one week, fibroblasts germinated from the coccyx part, and proliferated in the plate. The fibroblasts collected from rat tail end were used for the following experiment.
Rat fibroblasts during proliferating stage were inoculated 2 times more than usual to a 96-well plate, that 100 μl of cell suspension at 2×10^4 cells/ml. Subsequently, it was cultured for 72 hours, in order to make cells in a confluent condition. After confirming with an inverted microscope that cells were in a complete confluent condition in each well, medium of each well was changed. Then, serially diluted test samples were added to the wells by aliquot of 10 μl, by the above-mentioned method. Culture was continued 48 hours after the addition, and subsequently, MTT assay was performed for PtCl4/HAP (particle diameter 0.1 μm or less), and H2PtCl6/HAP (particle diameter 0.1 μm or less), with similar procedures to those described in the above “toxicity test of PtCl4/HAP and H2PtCl6/HAP during proliferation stage”.

[4] = IC50 converted to platinum concentration
[5] = cervical cancer, HAP agents particle diameter 0.1 μm or less

Platinum content calculated from IC50 of human cancer cells by MTT assay (HeLa; [4]): 1.4 ppm | IC50 of human cancer cells by MTT assay (HeLa; [5]): 2.1 ppm | Platinum content calculated from IC50 of human cancer cells by MTT assay (SiHa; [4]): 9.8 ppm | IC50 of human cancer cells by MTT assay (SiHa; [5]): 15.1 ppm | IC50 of human cancer cells by MTT assay (HT1080; HT1080, fibrosarcoma, HAP agents particle diameter 0.1 μm or less): 25.5 ppm | Platinum content calculated from IC50 of human cancer cells by MTT assay (HT1080; HT1080, IC50 converted to platinum concentration): 16.6 ppm | IC50 of human cancer cells by MTT assay (A431; A431, squamous cell cancer, HAP agents particle diameter 0.1 μm or less): 5.7 ppm | Platinum content calculated from IC50 of human cancer cells by MTT assay (A431; A431, IC50 converted to platinum concentration): 3.7 ppm | IC50 of human cancer cells by MTT assay (HSC3; HSC3, oral cancer, HAP agents particle diameter 0.1 μm or less): 2.9 ppm | Platinum content calculated from IC50 of human cancer cells by MTT assay (HSC3; HSC3, IC50 converted to platinum concentration): 1.9 ppm | Platinum content calculated from IC50 of human cancer cells by MTT assay (KB; [4]): 4.1 ppm | IC50 of human cancer cells by MTT assay (KB; oral cancer, HAP agents particle diameter 0.1 μm or less): 6.3 ppm | IC50 of human cancer cells by MTT assay (YES1; YES1, esophageal cancer, HAP agents particle diameter 0.1 μm or less): 8.2 ppm | Platinum content calculated from IC50 of human cancer cells by MTT assay (YES1; YES1, IC50 converted to platinum concentration): 5.4 ppm | IC50 of human cancer cells by MTT assay (YES2; YES2, esophageal cancer, HAP agents particle diameter 0.1 μm or less): 1.7 ppm | Platinum content calculated from IC50 of human cancer cells by MTT assay (YES2; YES2, IC50 converted to platinum concentration): 1.1 ppm | IC50 of human cancer cells by MTT assay (YES3; YES3, esophageal cancer, HAP agents particle diameter 0.1 μm or less): 1.2 ppm | Platinum content calculated from IC50 of human cancer cells by MTT assay (YES3; YES3, IC50 converted to platinum concentration): 0.8 ppm | IC50 of human cancer cells by MTT assay (YES4; YES4, esophageal cancer, HAP agents particle diameter 0.1 μm or less): 1.3 ppm | Platinum content calculated from IC50 of human cancer cells by MTT assay (YES4; YES4, IC50 converted to platinum concentration): 0.8 ppm | IC50 of human cancer cells by MTT assay (YES5; YES5, esophageal cancer, HAP agents particle diameter 0.1 μm or less): 10.0 ppm | Platinum content calculated from IC50 of human cancer cells by MTT assay (YES5; YES5, IC50 converted to platinum concentration): 6.5 ppm | IC50 of human cancer cells by MTT assay (YES6; YES6, esophageal cancer, HAP agents particle diameter 0.1 μm or less): 0.8 ppm | Platinum content calculated from IC50 of human cancer cells by MTT assay (YES6; YES6, IC50 converted to platinum concentration): 0.5 ppm | IC50 of human cancer cells by MTT assay (AZ521; AZ521, gastric cancer, HAP agents particle diameter 0.1 μm or less): 1.0 ppm | Platinum content calculated from IC50 of human cancer cells by MTT assay (AZ521; AZ521, IC50 converted to platinum concentration): 0.7 ppm | Platinum content calculated from IC50 of human cancer cells by MTT assay (Kato-III; KATO-III, IC50 converted to platinum concentration): 1.8 ppm | IC50 of human cancer cells by MTT assay (Kato-III; Kato-III, gastric cancer, HAP agents particle diameter 0.1 μm or less): 2.7 ppm | IC50 of human cancer cells by MTT assay (NUGC-4; NUGC-4, gastric cancer, HAP agents particle diameter 0.1 μm or less): 15.6 ppm | Platinum content calculated from IC50 of human cancer cells by MTT assay (NUGC-4; NUGC-4, IC50 converted to platinum concentration): 10.1 ppm | IC50 of human cancer cells by MTT assay (SW837; SW837, colon cancer, HAP agents particle diameter 0.1 μm or less): 40.2 ppm | Platinum content calculated from IC50 of human cancer cells by MTT assay (SW837; SW837, IC50 converted to platinum concentration): 26.1 ppm | Platinum content calculated from IC50 of human cancer cells by MTT assay (LoVo; [4]): 10.3 ppm | IC50 of human cancer cells by MTT assay (LoVo; colon cancer, HAP agents particle diameter 0.1 μm or less): 15.8 ppm | IC50 of human cancer cells by MTT assay (HepG2; HepG2, liver cancer, HAP agents particle diameter 0.1 μm or less): 5.0 ppm | Platinum content calculated from IC50 of human cancer cells by MTT assay (HepG2; HepG2, IC50 converted to platinum concentration): 5.0 ppm | IC50 of human cancer cells by MTT assay ([1]; Lu65, lung cancer, HAP agents particle diameter 0.1 μm or less (Table 1)): 2.7 ppm | Platinum content calculated from IC50 of human cancer cells by MTT assay ([1]; Lu65, IC50 converted to platinum concentration (Table 2)): 2.7 ppm | IC50 of human cancer cells by MTT assay ([2]; Lu99, lung cancer, HAP agents particle diameter 0.1 μm or less (Table 1)): 0.8 ppm | Platinum content calculated from IC50 of human cancer cells by MTT assay ([2]; Lu99, IC50 converted to platinum concentration (Table 2)): 0.8 ppm
Compound: [NH2][Pt]([NH2])([Cl])[Cl] [CDDP, cisplatin]
Net Pt: platinum content wherein IC50 is converted to platinum concentration, resting stage [3]: 1.9 ppm | IC50 in the toxicity test during resting stage ([3]; HAP agents particle diameter 0.1 μm or less): 2.9 ppm
